In brackets after ≈: the same amount, converted by molar mass.
Tests used:
Type in all cases: functional
[1] = test system: Escherichia coli; assay: Antibacterial activity against plasmid pK29 transconjugant Escherichia coli J53 by Etest
[2] = test system: Klebsiella pneumoniae; assay: Antibacterial activity against Klebsiella pneumoniae NK29 by Etest
[3] = test system: Escherichia coli; assay: Antibacterial activity against Escherichia coli J53 by Etest
[4] = test system: Escherichia coli; assay: Antibacterial activity against plasmid pK29 transconjugant Escherichia coli J53 assessed as inhibition zone diameter by CLSI disk diffusion confirmatory test
[5] = test system: Klebsiella pneumoniae; assay: Antibacterial activity against Klebsiella pneumoniae NK29 assessed as inhibition zone diameter by CLSI disk diffusion confirmatory test
[6] = test system: Escherichia coli; assay: Antibacterial activity against Escherichia coli J53 assessed as inhibition zone diameter by CLSI disk diffusion confirmatory test
[7] = test system: Klebsiella pneumoniae; assay: Antibacterial activity against Klebsiella pneumoniae NK29 by broth microdilution test
[8] = test system: Escherichia coli; assay: Antibacterial activity against Escherichia coli J53 by broth microdilution test
[9] = test system: Escherichia coli; assay: Antibacterial activity against plasmid pK29 transconjugant Escherichia coli J53 by broth microdilution test

Row | SMILES | MIC [1] | MIC [2] | MIC [3] | inhibition zone (IZ) [4] | inhibition zone (IZ) [5] | inhibition zone (IZ) [6] | MIC [7] | MIC [8] | MIC [9]
1 | O=C(N[C@H](CO)[C@H](O)c1ccc([N+](=O)[O-])cc1)C(Cl)Cl [CHLORAMPHENICOL] | 96 µg/mL (≈ 297 µM) | 96 µg/mL (≈ 297 µM) | 4 µg/mL (≈ 12.4 µM) |  |  |  |  |  | 
2 | CC(C)(O/N=C(\C(=O)N[C@@H]1C(=O)N2C(C(=O)[O-])=C(C[n+]3ccccc3)CS[C@H]12)c1csc(N)n1)C(=O)O [CEFTAZIDIME] | 1.5 µg/mL (≈ 2.74 µM) | 16 µg/mL (≈ 29.3 µM) | 0.19 µg/mL (≈ 0.348 µM) | 27 mm | 17 mm | 33 mm |  |  | 
3 | CO/N=C(\C(=O)N[C@@H]1C(=O)N2C(C(=O)[O-])=C(C[N+]3(C)CCCC3)CS[C@H]12)c1csc(N)n1 [CEFEPIME] | 1 µg/mL (≈ 2.08 µM) | 2 µg/mL (≈ 4.16 µM) | 0.094 µg/mL (≈ 0.196 µM) |  |  |  |  |  | 
4 | C[C@H]1[C@H](NC(=O)/C(=N\OC(C)(C)C(=O)O)c2csc(N)n2)C(=O)N1S(=O)(=O)O [AZTREONAM] | 2 µg/mL (≈ 4.59 µM) | 4 µg/mL (≈ 9.19 µM) |  |  |  |  |  |  | 
5 | CO/N=C(\C(=O)N[C@@H]1C(=O)N2C(C(=O)O)=C(COC(C)=O)CS[C@H]12)c1csc(N)n1 [CEFOTAXIME] | 24 µg/mL (≈ 52.7 µM) | 32 µg/mL (≈ 70.3 µM) | 0.064 µg/mL (≈ 0.141 µM) | 16 mm | 13 mm | 31 mm |  |  | 
6 | C[C@@H](O)[C@H]1C(=O)N2C(C(=O)O)=C(SCCNC=N)C[C@H]12 [IMIPENEM ANHYDROUS] | 0.25 µg/mL (≈ 0.835 µM) | 0.25 µg/mL (≈ 0.835 µM) |  |  |  |  |  |  | 
7 | CO[C@@]1(NC(=O)Cc2cccs2)C(=O)N2C(C(=O)O)=C(COC(N)=O)CS[C@@H]21 [CEFOXITIN] | > 256 µg/mL | > 256 µg/mL | 4 µg/mL (≈ 9.36 µM) |  |  |  |  |  | 
8 | O=C(O)c1cn(C2CC2)c2cc(N3CCNCC3)c(F)cc2c1=O [CIPROFLOXACIN] |  | 0.047 µg/mL (≈ 0.142 µM) |  |  |  |  |  |  | 
9 | CN(C)[C@@H]1C(O)=C(C(N)=O)C(=O)[C@@]2(O)C(O)=C3C(=O)c4c(O)cccc4[C@@](C)(O)[C@H]3C[C@@H]12 [TETRACYCLINE] | 2 µg/mL (≈ 4.5 µM) | 8 µg/mL (≈ 18 µM) | 2 µg/mL (≈ 4.5 µM) |  |  |  |  |  | 
10 | NC[C@H]1O[C@H](O[C@H]2[C@H](O)[C@@H](O[C@H]3O[C@H](CO)[C@@H](O)[C@H](N)[C@H]3O)[C@H](N)C[C@@H]2N)[C@H](O)[C@@H](O)[C@@H]1O [KANAMYCIN] |  |  |  |  |  |  | 32 µg/mL (≈ 66 µM) | 8 µg/mL (≈ 16.5 µM) | 32 µg/mL (≈ 66 µM)
11 | Cc1cc(NS(=O)(=O)c2ccc(N)cc2)no1 [SULFAMETHOXAZOLE] |  |  |  |  |  |  | > 512 µg/mL | ≤ 64 µg/mL | > 512 µg/mL
12 | CO/N=C(\C(=O)N[C@@H]1C(=O)N2C(C(=O)O)=C(CSc3nc(=O)c(O)nn3C)CS[C@H]12)c1csc(N)n1 [CEFTRIAXONE] | 16 µg/mL (≈ 28.9 µM) | 24 µg/mL (≈ 43.3 µM) | 0.19 µg/mL (≈ 0.343 µM) |  |  |  |  |  | 
